Source: paper PMC10860144, “Exploring the Dispersion and Electrostatic Components in Arene–Arene Interactions between Ligands and G4 DNA to Develop G4-Ligands” (Journal of Medicinal Chemistry, 2024)

How the values were obtained:
[1] = test system: template not forming a G4 structure (PEPu24T mut); assay: Taq polymerase stop (primer extension) assay, non-G4 template; assay type: biochemical
Description: To challenge all the synthesized compounds (2–11 and 25–29) in a more intricate context, we conducted a Taq polymerase stop assay to evaluate their capacity to impede DNA synthesis through G4 stabilization. In this assay, we compared the progress of the Taq DNA polymerase along two distinct DNA templates: one with a G4 structure (Figure 5) and another serving as a non-G4 control (Figure S21). If an external species (e.g., G4 ligand) binds and stabilizes the G4 structure, the polymerase will be partially halted. The extent of this DNA polymerase stalling is dependent on the ability of the compound to stabilize the G4 on the DNA template. The increased G4 stabilization can be detected as a reduction in the amount of newly synthesized DNA that has reached the end of the DNA template (full-length/end-product). Analysis of these shorter terminated DNA products will give information about the precise location of the DNA polymerase stalling with a single nucleotide resolution. If the ligand imposes little to no stabilization or binding, the G4 is readily resolved by the DNA polymerase, and no difference in the amount of DNA end-product can therefore be expected upon the addition of the compound. […]
The images were quantified using ImageJ 1.53e software and the percentage of full-length product compared to a sample without compound was calculated. […]

c-MYC Pu22 G4 DNA = assay: 1H NMR titration with c-MYC Pu22 G4 DNA; assay type: binding, human; settings: DNA 90 μM; 298 K
Description: To study the interactions of compounds 5 and 27 with G4 DNA in more detail, we performed a nuclear magnetic resonance (NMR) titration assay for both compounds with c-MYC Pu22 G4 DNA. In this assay, we monitored chemical shift alterations and the broadening of the well-defined imino protons from the G4 DNA located at 10–12 ppm in the NMR spectrum upon the addition of different compound concentrations. […] Although it is challenging to conclude the details of the binding interactions, the observed impact on the protons in the 3′ quartet for both compounds, especially compound 27, strongly implies the presence of an end-stacking type of interaction.
The G4 DNA stock solutions were prepared by folding 100 μM c-MYC Pu22 in 10 mM potassium phosphate buffer (pH = 7.4) and 35 mM KCl by heating at 95 °C for 10 min and cooling to ambient temperature overnight. 10% D2O was added to the DNA stock solutions, yielding a final DNA concentration of 90 μM. NMR samples were prepared by sequential addition of 5 or 27 from 2 or 10 mM DMSO-d6 stock solutions to 200 μL of the DNA solution which was then transferred to 3 mm NMR tubes. […] All spectra were recorded at 298 K on a Bruker 850 MHz Avance III HD spectrometer equipped with a 5 mm TCI cryoprobe. Excitation sculpting was used in the 1D 1H experiments, and 256 scans were recorded. Processing of spectra was performed in MestreNova 10.0.2.

concentration at which an effect on the Taq polymerase was observed in the absence of a G4 structure [1] [µM] | binding by NMR titration (imino protons) (c-MYC Pu22 G4 DNA) | Compound
> 4 | bind | Cc1cc(C)c2nc(Nc3nc(C)cc(NCCCN(C)C)n3)nc(C)c2c1 [Compound 5, N4-(3-(Dimethylamino)propyl)-6-methyl-N2-(4,6,8-trimethylquinazolin-2-yl)pyrimidine-2,4-diamine]
– | bind | Cc1cc(C)c2nc(Nc3nc(C)cc(C)n3)nc(C)c2c1 [Compound 27, N-(4,6-Dimethylpyrimidin-2-yl)-4,6,8-trimethylquinazolin-2-amine]
